pIC50: −log10 of the molar value.

The target of this test is T1, Recombinant human KIF18A (1-467His-tagged) protein (Homo sapiens, UniProt Q8NI77).
T1 construct: Recombinant human KIF18A (1-467His-tagged) protein; His; made in house
T1 sequence (Q8NI77 1-467): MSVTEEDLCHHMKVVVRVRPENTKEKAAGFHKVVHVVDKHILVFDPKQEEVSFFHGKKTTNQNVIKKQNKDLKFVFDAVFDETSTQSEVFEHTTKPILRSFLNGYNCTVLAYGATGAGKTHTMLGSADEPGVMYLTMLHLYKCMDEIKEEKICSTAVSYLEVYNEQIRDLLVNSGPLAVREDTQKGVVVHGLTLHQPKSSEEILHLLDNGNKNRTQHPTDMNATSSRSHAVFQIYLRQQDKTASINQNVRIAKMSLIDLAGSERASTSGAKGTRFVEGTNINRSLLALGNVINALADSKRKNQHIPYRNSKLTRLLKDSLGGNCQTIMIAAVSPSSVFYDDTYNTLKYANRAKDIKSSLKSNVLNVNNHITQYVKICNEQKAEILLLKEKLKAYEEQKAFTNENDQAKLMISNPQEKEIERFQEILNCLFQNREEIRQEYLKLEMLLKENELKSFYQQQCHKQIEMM
T1 sequence (P02550 whole entry partner): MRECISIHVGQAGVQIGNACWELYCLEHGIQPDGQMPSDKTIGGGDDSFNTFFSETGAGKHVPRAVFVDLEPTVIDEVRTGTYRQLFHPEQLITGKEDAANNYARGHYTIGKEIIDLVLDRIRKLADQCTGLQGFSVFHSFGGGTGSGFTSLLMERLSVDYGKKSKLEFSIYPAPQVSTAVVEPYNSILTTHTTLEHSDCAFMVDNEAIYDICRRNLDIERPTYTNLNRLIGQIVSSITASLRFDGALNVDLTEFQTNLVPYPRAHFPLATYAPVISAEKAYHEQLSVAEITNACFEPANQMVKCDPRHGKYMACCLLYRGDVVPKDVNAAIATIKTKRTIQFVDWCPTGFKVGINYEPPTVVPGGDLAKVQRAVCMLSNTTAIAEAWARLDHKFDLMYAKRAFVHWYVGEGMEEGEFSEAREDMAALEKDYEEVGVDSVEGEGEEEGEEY
T1 sequence (P02554 whole entry partner): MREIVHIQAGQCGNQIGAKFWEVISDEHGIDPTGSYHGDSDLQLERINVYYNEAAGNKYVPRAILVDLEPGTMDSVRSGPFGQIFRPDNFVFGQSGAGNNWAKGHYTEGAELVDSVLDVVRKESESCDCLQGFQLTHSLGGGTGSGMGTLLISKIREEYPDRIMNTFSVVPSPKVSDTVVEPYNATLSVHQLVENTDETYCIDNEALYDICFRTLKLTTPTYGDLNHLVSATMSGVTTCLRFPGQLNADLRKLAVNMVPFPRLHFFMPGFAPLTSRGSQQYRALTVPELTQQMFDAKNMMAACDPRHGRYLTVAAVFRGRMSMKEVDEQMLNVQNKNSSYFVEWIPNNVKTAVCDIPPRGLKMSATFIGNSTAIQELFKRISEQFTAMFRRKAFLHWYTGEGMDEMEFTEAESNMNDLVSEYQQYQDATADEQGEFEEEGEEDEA
Nature of the test: KIF18A enzyme assay (microtubule-stimulated ATPase activity, ADP-Glo). The format is biochemical. The conditions noted are these: 30 nM KIF18A, 75 μM ATP, 30 μg/mL pig microtubules; read-out: Inhibitory activity against KIF18A IC50. The procedure, abridged:
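Buffer 15 mM Tris pH 7.5, 10 mM MgCl2, 0.01% Pluronic F-68, 1 μM paclitaxel, 30 μg/mL pig microtubules; reactions at room temperature. IC50 from inhibition relative to DMSO.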
In general terms: ADP-Glo turns the ADP formed in a reaction into a luminescent signal.
As for `O=C(Nc1ccc(OCF)c(N2CC3CC3C2)c1)c1ccc(S(=O)(=O)NCCO)cc1N1CCC2(CC1)CC2` (centres unmarked) [Compound 410], the pIC50 (in general, the IC50 on a negative log10 scale, so that one unit is a factor of ten) was not below 7.00. To `CC(C)(CO)Nc1cc(NC(=O)c2ccc(S(=O)(=O)NCCO)cc2N2CCC3(CC2)CC3)ccc1OCF` [Compound 411] belongs not below 7.00; to `O=C(Nc1ccc(OCF)c(N2CCOCC2)c1)c1ccc(S(=O)(=O)NCCO)cc1N1CCC2(CC1)CC2` [Compound 412], not below 7.00. With `C[C@@H](CO)S(=O)(=O)Nc1ccc(C(=O)Nc2ccc(OCF)c(N3CCC(F)(F)CC3)c2)c(N2CCC3(CC2)CC3)c1` [Compound 413] the figure was not below 7.00; with `C[C@H](CO)NS(=O)(=O)c1ccc(C(=O)Nc2ccc(OCF)c(N3CCC(F)(F)CC3)c2)c(N2CCC3(CC2)CC3)c1` [Compound 414], not below 7.00. On to `C[C@@H]1CN(c2cc(NC(=O)c3ccc(S(=O)(=O)N[C@@H](C)CO)cc3N3CCC4(CC3)CC4)ccc2OCF)CCO1` [Compound 415], for which the pIC50 is not below 7.00.

In the case of `C[C@H](CO)NS(=O)(=O)c1ccc(C(=O)Nc2ccc(OCF)c(N3CCO[C@H](C)C3)c2)c(N2CCC3(CC2)CC3)c1` [Compound 416], the pIC50 is not below 7.00. `O=C(Nc1ccc(OCF)c(N2CCC(F)(F)CC2)n1)c1ccc(NS(=O)(=O)CCO)cc1N1CCC2(CC1)CC2` [Compound 417]: the pIC50 is not below 7.00. For the compound `C[C@@H]1CN(c2nc(NC(=O)c3ccc(NS(=O)(=O)CCO)cc3N3CCC4(CC3)CC4)ccc2OCF)CCO1` [Compound 418], the pIC50 was not below 7.00. For `C[C@H]1CN(c2nc(NC(=O)c3ccc(NS(=O)(=O)CCO)cc3N3CCC4(CC3)CC4)ccc2OCF)CCO1` [Compound 419], the pIC50 is not below 7.00.

As to `O=C(Nc1ccc(OCF)c(N2CC(F)(F)C2)n1)c1ccc(NS(=O)(=O)CCO)cc1N1CCC2(CC1)CC2` [Compound 420], the pIC50 was not below 7.00.

Regarding `O=C(Nc1ccc(OCF)c(OCCC(F)(F)F)n1)c1ccc(NS(=O)(=O)CCO)cc1N1CCC2(CC1)CC2` [Compound 421], the pIC50 was not below 7.00. In the case of `O=C(Nc1ccc(OCF)c(N2CCC3(CC3)C2)n1)c1ccc(NS(=O)(=O)CCO)cc1N1CCC2(CC1)CC2` [Compound 422], the pIC50 is not below 7.00.

For the compound `O=C(Nc1ccc(OCF)c(OC2CCC2)n1)c1ccc(NS(=O)(=O)CCO)cc1N1CCC2(CC1)CC2` [Compound 423], the pIC50 is not below 7.00. With `CC1(F)CCN(c2nc(NC(=O)c3ccc(NS(=O)(=O)CCO)cc3N3CCC4(CC3)CC4)ccc2OCF)C1` (centres unmarked) [Compound 424] the figure was not below 7.00; with `O=C(Nc1ccc(OCF)c(N2CCC(F)CC2)n1)c1ccc(NS(=O)(=O)CCO)cc1N1CCC2(CC1)CC2` [Compound 425], not below 7.00. For `O=C(Nc1ccc(OCF)c(N2CC3CC3C2)n1)c1ccc(NS(=O)(=O)CCO)cc1N1CCC2(CC1)CC2` (centres unmarked) [Compound 426], the pIC50 is not below 7.00.

In the case of `CC(C)(CO)Nc1nc(NC(=O)c2ccc(NS(=O)(=O)CCO)cc2N2CCC3(CC2)CC3)ccc1OCF` [Compound 427], the pIC50 is not below 7.00. `O=C(Nc1ccc(OCF)c(N2CCOCC2)n1)c1ccc(NS(=O)(=O)CCO)cc1N1CCC2(CC1)CC2` [Compound 428]: the pIC50 was not below 7.00. As to `C[C@@H](CO)S(=O)(=O)Nc1ccc(C(=O)Nc2ccc(OCF)c(N3CCC(F)(F)CC3)n2)c(N2CCC3(CC2)CC3)c1` [Compound 429], the pIC50 is not below 7.00. Take `C[C@H](CO)S(=O)(=O)Nc1ccc(C(=O)Nc2ccc(OCF)c(N3CCC(F)(F)CC3)n2)c(N2CCC3(CC2)CC3)c1` [Compound 430]: the pIC50 is not below 7.00.

For `C[C@@H]1CN(c2nc(NC(=O)c3ccc(NS(=O)(=O)[C@@H](C)CO)cc3N3CCC4(CC3)CC4)ccc2OCF)CCO1` [Compound 431], the pIC50 is not below 7.00. Consider `C[C@@H]1CN(c2nc(NC(=O)c3ccc(NS(=O)(=O)[C@H](C)CO)cc3N3CCC4(CC3)CC4)ccc2OCF)CCO1` [Compound 432], for which the pIC50 was not below 7.00. On to `O=C(Nc1ccc(OCF)c(N2CCC(F)(F)CC2)n1)c1ccc(S(=O)(=O)NCCO)cc1N1CCC2(CC1)CC2` [Compound 433], for which the pIC50 was not below 7.00. Turning to `C[C@@H]1CN(c2nc(NC(=O)c3ccc(S(=O)(=O)NCCO)cc3N3CCC4(CC3)CC4)ccc2OCF)CCO1` [Compound 434], the pIC50 is not below 7.00. On to `C[C@H]1CN(c2nc(NC(=O)c3ccc(S(=O)(=O)NCCO)cc3N3CCC4(CC3)CC4)ccc2OCF)CCO1` [Compound 435], for which the pIC50 is not below 7.00. For `O=C(Nc1ccc(OCF)c(N2CC(F)(F)C2)n1)c1ccc(S(=O)(=O)NCCO)cc1N1CCC2(CC1)CC2` [Compound 436], the pIC50 is not below 7.00. Turning to `O=C(Nc1ccc(OCF)c(OCCC(F)(F)F)n1)c1ccc(S(=O)(=O)NCCO)cc1N1CCC2(CC1)CC2` [Compound 437], the pIC50 was not below 7.00. Turning to `O=C(Nc1ccc(OCF)c(N2CCC3(CC3)C2)n1)c1ccc(S(=O)(=O)NCCO)cc1N1CCC2(CC1)CC2` [Compound 438], the pIC50 was not below 7.00. `O=C(Nc1ccc(OCF)c(OC2CCC2)n1)c1ccc(S(=O)(=O)NCCO)cc1N1CCC2(CC1)CC2` [Compound 439]: the pIC50 was not below 7.00. With `CC1(F)CCN(c2nc(NC(=O)c3ccc(S(=O)(=O)NCCO)cc3N3CCC4(CC3)CC4)ccc2OCF)C1` (centres unmarked) [Compound 440] the figure was not below 7.00. To `O=C(Nc1ccc(OCF)c(N2CCC(F)CC2)n1)c1ccc(S(=O)(=O)NCCO)cc1N1CCC2(CC1)CC2` [Compound 441] belongs not below 7.00; to `O=C(Nc1ccc(OCF)c(N2CC3CC3C2)n1)c1ccc(S(=O)(=O)NCCO)cc1N1CCC2(CC1)CC2` (centres unmarked) [Compound 442], not below 7.00. With `CC(C)(CO)Nc1nc(NC(=O)c2ccc(S(=O)(=O)NCCO)cc2N2CCC3(CC2)CC3)ccc1OCF` [Compound 443], the pIC50 was not below 7.00. To `O=C(Nc1ccc(OCF)c(N2CCOCC2)n1)c1ccc(S(=O)(=O)NCCO)cc1N1CCC2(CC1)CC2` [Compound 444] belongs not below 7.00.

In the case of `C[C@@H](CO)NS(=O)(=O)c1ccc(C(=O)Nc2ccc(OCF)c(N3CCC(F)(F)CC3)n2)c(N2CCC3(CC2)CC3)c1` [Compound 445], the pIC50 is not below 7.00. For the compound `C[C@H](CO)NS(=O)(=O)c1ccc(C(=O)Nc2ccc(OCF)c(N3CCC(F)(F)CC3)n2)c(N2CCC3(CC2)CC3)c1` [Compound 446], the pIC50 was not below 7.00. `C[C@@H]1CN(c2nc(NC(=O)c3ccc(S(=O)(=O)N[C@@H](C)CO)cc3N3CCC4(CC3)CC4)ccc2OCF)CCO1` [Compound 447]: the pIC50 is not below 7.00. As for `C[C@H](CO)NS(=O)(=O)c1ccc(C(=O)Nc2ccc(OCF)c(N3CCO[C@H](C)C3)n2)c(N2CCC3(CC2)CC3)c1` [Compound 448], the pIC50 is not below 7.00. With `O=C(Nc1ccc(OCF)c(N2CCC(F)(F)CC2)c1)c1cnc(NS(=O)(=O)CCO)cc1N1CCC2(CC1)CC2` [Compound 449] the figure was not below 7.00; with `C[C@@H]1CN(c2cc(NC(=O)c3cnc(NS(=O)(=O)CCO)cc3N3CCC4(CC3)CC4)ccc2OCF)CCO1` [Compound 450], not below 7.00. On to `C[C@H]1CN(c2cc(NC(=O)c3cnc(NS(=O)(=O)CCO)cc3N3CCC4(CC3)CC4)ccc2OCF)CCO1` [Compound 451], for which the pIC50 is not below 7.00. As to `O=C(Nc1ccc(OCF)c(N2CC(F)(F)C2)c1)c1cnc(NS(=O)(=O)CCO)cc1N1CCC2(CC1)CC2` [Compound 452], the pIC50 was not below 7.00. Take `O=C(Nc1ccc(OCF)c(OCCC(F)(F)F)c1)c1cnc(NS(=O)(=O)CCO)cc1N1CCC2(CC1)CC2` [Compound 453]: the pIC50 is not below 7.00. To `O=C(Nc1ccc(OCF)c(N2CCC3(CC3)C2)c1)c1cnc(NS(=O)(=O)CCO)cc1N1CCC2(CC1)CC2` [Compound 454] belongs not below 7.00; to `O=C(Nc1ccc(OCF)c(OC2CCC2)c1)c1cnc(NS(=O)(=O)CCO)cc1N1CCC2(CC1)CC2` [Compound 455], not below 7.00; to `CC1(F)CCN(c2cc(NC(=O)c3cnc(NS(=O)(=O)CCO)cc3N3CCC4(CC3)CC4)ccc2OCF)C1` (centres unmarked) [Compound 456], not below 7.00.

Take `O=C(Nc1ccc(OCF)c(N2CCC(F)CC2)c1)c1cnc(NS(=O)(=O)CCO)cc1N1CCC2(CC1)CC2` [Compound 457]: the pIC50 was not below 7.00. For `O=C(Nc1ccc(OCF)c(N2CC3CC3C2)c1)c1cnc(NS(=O)(=O)CCO)cc1N1CCC2(CC1)CC2` (centres unmarked) [Compound 458], the pIC50 was not below 7.00. With `CC(C)(CO)Nc1cc(NC(=O)c2cnc(NS(=O)(=O)CCO)cc2N2CCC3(CC2)CC3)ccc1OCF` [Compound 459], the pIC50 is not below 7.00. With `O=C(Nc1ccc(OCF)c(N2CCOCC2)c1)c1cnc(NS(=O)(=O)CCO)cc1N1CCC2(CC1)CC2` [Compound 460] the figure was not below 7.00. With `C[C@@H](CO)S(=O)(=O)Nc1cc(N2CCC3(CC2)CC3)c(C(=O)Nc2ccc(OCF)c(N3CCC(F)(F)CC3)c2)cn1` [Compound 461] the figure was not below 7.00; with `C[C@H](CO)S(=O)(=O)Nc1cc(N2CCC3(CC2)CC3)c(C(=O)Nc2ccc(OCF)c(N3CCC(F)(F)CC3)c2)cn1` [Compound 462], not below 7.00; with `C[C@@H]1CN(c2cc(NC(=O)c3cnc(NS(=O)(=O)[C@@H](C)CO)cc3N3CCC4(CC3)CC4)ccc2OCF)CCO1` [Compound 463], not below 7.00. On to `C[C@@H]1CN(c2cc(NC(=O)c3cnc(NS(=O)(=O)[C@H](C)CO)cc3N3CCC4(CC3)CC4)ccc2OCF)CCO1` [Compound 464], for which the pIC50 was not below 7.00. To `O=C(Nc1ccc(OCF)c(N2CCC(F)(F)CC2)c1)c1cnc(S(=O)(=O)NCCO)cc1N1CCC2(CC1)CC2` [Compound 465] belongs not below 7.00; to `C[C@@H]1CN(c2cc(NC(=O)c3cnc(S(=O)(=O)NCCO)cc3N3CCC4(CC3)CC4)ccc2OCF)CCO1` [Compound 466], not below 7.00. Take `C[C@H]1CN(c2cc(NC(=O)c3cnc(S(=O)(=O)NCCO)cc3N3CCC4(CC3)CC4)ccc2OCF)CCO1` [Compound 467]: the negative-log IC50 (pIC50) was not below 7.00. Consider `O=C(Nc1ccc(OCF)c(N2CC(F)(F)C2)c1)c1cnc(S(=O)(=O)NCCO)cc1N1CCC2(CC1)CC2` [Compound 468], for which the pIC50 was not below 7.00.
